Reference: patent US11702422B2, “Imidazopyridazines as modulators of IL-17” (Janssen Pharmaceutica NV, priority 2020, dated 2023)

Legend:
[1] = target: IL-17A(FLAG-Tagged): IL-17RA(His-Tagged) (Homo sapiens, UniProt Q16552, K93Q); assay: IL-17A(FLAG-Tagged): IL-17RA(His-Tagged) Binding Disruption Eu-HTRF Assay; conditions: IL-17A/IL-17RA binding disruption, simple average if tested more than once
In short: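 IC50 comes from a one-site competition fit of the HTRF 665/620 nm ratio. Compound dilutions (2-fold, 22 points) were held 1 h rt with FLAG-tagged IL-17A dimer, then His-tagged IL-17RA plus Eu-cryptate anti-FLAG and D2 anti-His antibodies were added for 2 h rt.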

[2] = system: IL-17A-induced G-CSF production in human normal keratinocyte (NHK); assay: NHK Assay: IL-17A-induced G-CSF production in human normal keratinocytes; format: cell-based; conditions: Homo sapiens, Keratinocyte, 24 h, adult normal human keratinocytes, IL-17A 5 ng/mL, simple average if tested more than once
In short: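 HTRF read-out of supernatant G-CSF, quantified from a standard curve, gave IC50 values. Adult keratinocytes, 3000-4000 cells/well, received human IL-17A (5 ng/mL final) pre-mixed 1 h at rt with compound, in 5% FBS and 0.2% DMSO, 24 h at 37° C.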

UniProt Q16552, sequence (Q16552 with tags, fused parts or gaps K93Q): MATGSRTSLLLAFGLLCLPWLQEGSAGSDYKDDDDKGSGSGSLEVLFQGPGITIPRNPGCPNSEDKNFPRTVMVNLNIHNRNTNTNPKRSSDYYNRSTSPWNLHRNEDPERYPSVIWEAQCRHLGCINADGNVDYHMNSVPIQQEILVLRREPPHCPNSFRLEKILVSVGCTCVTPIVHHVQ

Work on `O=C(CCC(F)(F)F)N[C@@H](c1cnn2cc([C@@H](NC(=O)c3cnnn3CC3CC3)C3CCC(F)(F)CC3)nc2c1)C1CC1` [Example 48, N—((S)-(7-((R)-Cyclopropyl(4,4,4-trifluorobutanamido)methyl)imidazo[1,2-b]pyridazin-2-yl)(4,4-difluorocyclohexyl)methyl)-1-(cyclopropylmethyl)-1H-1,2,3-triazole-5-carboxamide] yielded an IC50 [1] of 63 nM and an IC50 [2] of 160 nM.
Work on `O=C(CCC(F)(F)F)N[C@@H](c1cnn2cc([C@@H](NC(=O)c3cnnn3CCC(F)F)C3CCC(F)(F)CC3)nc2c1)C1CC1` [Example 49, N—((S)-(7-((R)-Cyclopropyl(4,4,4-trifluorobutanamido)methyl)imidazo[1,2-b]pyridazin-2-yl)(4,4-difluorocyclohexyl)methyl)-1-(3,3-difluoropropyl)-1H-1,2,3-triazole-5-carboxamide] yielded an IC50 [1] of 95 nM and an IC50 [2] of 110 nM.
Work on `Cc1c(C(=O)N[C@H](c2cn3ncc([C@H](NC(=O)CCC(F)(F)F)C4CC4)cc3n2)C2CCC(F)(F)CC2)cnn1CC(F)F` [Example 50, N—((S)-(7-((R)-Cyclopropyl(4,4,4-trifluorobutanamido)methyl)imidazo[1,2-b]pyridazin-2-yl)(4,4-difluorocyclohexyl)methyl)-1-(2,2-difluoroethyl)-5-methyl-1H-pyrazole-4-carboxamide] yielded an IC50 [1] of 350 nM and an IC50 [2] of 1000 nM.
`O=C(CCC(F)(F)F)N[C@@H](c1cnn2cc([C@@H](NC(=O)c3ncnn3CCOC(F)F)C3CCC(F)(F)CC3)nc2c1)C1CC1` [Example 55, N—((S)-(7-((R)-Cyclopropyl(4,4,4-trifluorobutanamido)methyl)imidazo[1,2-b]pyridazin-2-yl)(4,4-difluorocyclohexyl)methyl)-1-(2-(difluoromethoxy)ethyl)-1H-1,2,4-triazole-5-carboxamide] gave an IC50 [1] of 100 nM and an IC50 [2] of 210 nM.
For `O=C(CCC(F)(F)F)N[C@@H](c1cnn2cc([C@@H](NC(=O)c3ncnn3CC(F)F)C3CCC(F)(F)CC3)nc2c1)C1CC1` [Example 56, N—((S)-(7-((R)-Cyclopropyl(4,4,4-trifluorobutanamido)methyl)imidazo[1,2-b]pyridazin-2-yl)(4,4-difluorocyclohexyl)methyl)-1-(2,2-difluoroethyl)-1H-1,2,4-triazole-5-carboxamide], the IC50 [1] was 170 nM and the IC50 [2] was 730 nM.
Compound `O=C(CCC(F)(F)F)N[C@@H](c1cnn2cc([C@@H](NC(=O)c3ncnn3CCF)C3CCC(F)(F)CC3)nc2c1)C1CC1` [Example 57, N—((S)-(7-((R)-Cyclopropyl(4,4,4-trifluorobutanamido)methyl)imidazo[1,2-b]pyridazin-2-yl)(4,4-difluorocyclohexyl)methyl)-1-(2-fluoroethyl)-1H-1,2,4-triazole-5-carboxamide] has an IC50 [1] of 220 nM and an IC50 [2] of 770 nM.
With `CCn1nncc1C(=O)N[C@H](c1cn2ncc([C@H](NC(=O)CCC(F)(F)F)C3CC3)cc2n1)C1CCC(F)(F)CC1` [Example 58, N—((S)-(7-((R)-Cyclopropyl(4,4,4-trifluorobutanamido)methyl)imidazo[1,2-b]pyridazin-2-yl)(4,4-difluorocyclohexyl)methyl)-1-ethyl-1H-1,2,3-triazole-5-carboxamide] the IC50 [1] was 81 nM and the IC50 [2] was 270 nM.
For `CCn1ncc(C(=O)N[C@H](c2cn3ncc([C@H](NC(=O)CCC(F)(F)F)C4CC4)cc3n2)C2CCC(F)(F)CC2)n1` [Example 59, N—((S)-(7-((R)-Cyclopropyl(4,4,4-trifluorobutanamido)methyl)imidazo[1,2-b]pyridazin-2-yl)(4,4-difluorocyclohexyl)methyl)-2-ethyl-2H-1,2,3-triazole-4-carboxamide], the IC50 [1] was 420 nM and the IC50 [2] was 3600 nM.
For `O=C(CCC(F)(F)F)N[C@@H](c1cnn2cc([C@@H](NC(=O)C3(F)CC3)C3CCC(F)(F)CC3)nc2c1)C1CC1` [Example 60, N—((S)-(7-((R)-Cyclopropyl(4,4,4-trifluorobutanamido)methyl)imidazo[1,2-b]pyridazin-2-yl)(4,4-difluorocyclohexyl)methyl)-1-fluorocyclopropane-1-carboxamide], the IC50 [1] was 390 nM and the IC50 [2] was 3500 nM.
`O=C(CCC(F)(F)F)N[C@@H](c1cnn2cc([C@@H](NC(=O)c3ncnn3CC(F)(F)F)C3CCC(F)(F)CC3)nc2c1)C1CC1` [Example 61, N—((S)-(7-((R)-Cyclopropyl(4,4,4-trifluorobutanamido)methyl)imidazo[1,2-b]pyridazin-2-yl)(4,4-difluorocyclohexyl)methyl)-1-(2,2,2-trifluoroethyl)-1H-1,2,4-triazole-5-carboxamide] showed an IC50 [1] of 190 nM and an IC50 [2] of 1200 nM.
For `CC1(C)CC1C(=O)N[C@H](c1cn2ncc([C@H](NC(=O)CCC(F)(F)F)C3CC3)cc2n1)C1CCC(F)(F)CC1` (stereo partly drawn) [Example 62, N—((S)-(7-((R)-Cyclopropyl(4,4,4-trifluorobutanamido)methyl)imidazo[1,2-b]pyridazin-2-yl)(4,4-difluorocyclohexyl)methyl)-2,2-dimethylcyclopropane-1-carboxamide], the IC50 [1] was 830 nM and the IC50 [2] was ~4000 nM.
`O=C(CCC(F)(F)F)N[C@@H](c1cnn2cc([C@@H](NC(=O)c3cnn(CC4CC(F)(F)C4)n3)C3CCC(F)(F)CC3)nc2c1)C1CC1` [Example 63, N—((S)-(7-((R)-Cyclopropyl(4,4,4-trifluorobutanamido)methyl)imidazo[1,2-b]pyridazin-2-yl)(4,4-difluorocyclohexyl)methyl)-2-((3,3-difluorocyclobutyl)methyl)-2H-1,2,3-triazole-4-carboxamide] gave an IC50 [1] of 130 nM and an IC50 [2] of 200 nM.
`COCCn1ncc(C(=O)N[C@H](c2cn3ncc([C@H](NC(=O)CCC(F)(F)F)C4CC4)cc3n2)C2CCC(F)(F)CC2)n1` [Example 64, N—((S)-(7-((R)-Cyclopropyl(4,4,4-trifluorobutanamido)methyl)imidazo[1,2-b]pyridazin-2-yl)(4,4-difluorocyclohexyl)methyl)-2-(2-methoxyethyl)-2H-1,2,3-triazole-4-carboxamide] was tested, and the IC50 [1] was 630 nM and the IC50 [2] was 2000 nM.
Compound `CC(C)n1nncc1C(=O)N[C@H](c1cn2ncc([C@H](NC(=O)CCC(F)(F)F)C3CC3)cc2n1)C1CCC(F)(F)CC1` [Example 65, N—((S)-(7-((R)-Cyclopropyl(4,4,4-trifluorobutanamido)methyl)imidazo[1,2-b]pyridazin-2-yl)(4,4-difluorocyclohexyl)methyl)-1-isopropyl-1H-1,2,3-triazole-5-carboxamide] has an IC50 [1] of 110 nM and an IC50 [2] of 72 nM.
`Cn1nnc(C(=O)N[C@H](c2cn3ncc([C@H](NC(=O)CCC(F)(F)F)C4CC4)cc3n2)C2CCC(F)(F)CC2)c1C(F)F` [Example 66, N—((S)-(7-((R)-Cyclopropyl(4,4,4-trifluorobutanamido)methyl)imidazo[1,2-b]pyridazin-2-yl)(4,4-difluorocyclohexyl)methyl)-5-(difluoromethyl)-1-methyl-1H-1,2,3-triazole-4-carboxamide] was tested, and the IC50 [1] was 230 nM and the IC50 [2] was 3500 nM.
For `O=C(CCC(F)(F)F)N[C@@H](c1cnn2cc([C@@H](NC(=O)c3ccnn3C(F)F)C3CCC(F)(F)CC3)nc2c1)C1CC1` [Example 67, N—((S)-(7-((R)-Cyclopropyl(4,4,4-trifluorobutanamido)methyl)imidazo[1,2-b]pyridazin-2-yl)(4,4-difluorocyclohexyl)methyl)-1-(difluoromethyl)-1H-pyrazole-5-carboxamide], the IC50 [1] was 82 nM and the IC50 [2] was 180 nM.
`O=C(CCC(F)(F)F)N[C@@H](c1cnn2cc([C@@H](NC(=O)c3cnnn3C3CC3)C3CCC(F)(F)CC3)nc2c1)C1CC1` [Example 68, 1-Cyclopropyl-N—((S)-(7-((R)-cyclopropyl(4,4,4-trifluorobutanamido)methyl)imidazo[1,2-b]pyridazin-2-yl)(4,4-difluorocyclohexyl)methyl)-1H-1,2,3-triazole-5-carboxamide] showed an IC50 [1] of 150 nM and an IC50 [2] of 250 nM.
`O=C(CCC(F)(F)F)N[C@@H](c1cnn2cc([C@@H](NC(=O)c3ccnn3C(CF)CF)C3CCC(F)(F)CC3)nc2c1)C1CC1` [Example 69, N—((S)-(7-((R)-Cyclopropyl(4,4,4-trifluorobutanamido)methyl)imidazo[1,2-b]pyridazin-2-yl)(4,4-difluorocyclohexyl)methyl)-1-(1,3-difluoropropan-2-yl)-1H-pyrazole-5-carboxamide] showed an IC50 [1] of 110 nM and an IC50 [2] of 55 nM.
`O=C(CCC(F)(F)F)N[C@@H](c1cnn2cc([C@@H](NC(=O)c3ncnn3CCOC(F)(F)F)C3CCC(F)(F)CC3)nc2c1)C1CC1` [Example 70, N—((S)-(7-((R)-Cyclopropyl(4,4,4-trifluorobutanamido)methyl)imidazo[1,2-b]pyridazin-2-yl)(4,4-difluorocyclohexyl)methyl)-1-(2-(trifluoromethoxy)ethyl)-1H-1,2,4-triazole-5-carboxamide] showed an IC50 [1] of 49 nM and an IC50 [2] of 110 nM.
For `O=C(CCC(F)(F)F)N[C@@H](c1cnn2cc([C@@H](NC(=O)c3ccnc(CC(F)(F)F)c3)C3CCC(F)(F)CC3)nc2c1)C1CC1` [Example 74, N—((S)-(7-((R)-Cyclopropyl(4,4,4-trifluorobutanamido)methyl)imidazo[1,2-b]pyridazin-2-yl)(4,4-difluorocyclohexyl)methyl)-2-(2,2,2-trifluoroethyl)isonicotinamide], the IC50 [1] was 120 nM and the IC50 [2] was 58 nM.
In the case of `O=C(CCC(F)(F)F)N[C@@H](c1cnn2cc([C@@H](NC(=O)c3conc3C3CC3)C3CCC(F)(F)CC3)nc2c1)C1CC1` [Example 75, 3-Cyclopropyl-N—((S)-(7-((R)-cyclopropyl(4,4,4-trifluorobutanamido)methyl)imidazo[1,2-b]pyridazin-2-yl)(4,4-difluorocyclohexyl)methyl)isoxazole-4-carboxamide], the IC50 [1] is reported as 50 nM and the IC50 [2] is reported as 92 nM.
